ChEMBL document CHEMBL1938270, “Synthesis and antifungal activity of natural product-based 6-alkyl-2,3,4,5-tetrahydropyridines” (J Nat Prod, 2011)
In brackets after ≈: the same amount, converted by molar mass. Activity calls are given as the source filed them. The rule behind the calls is not given here.

Columns and labels:
Cryptococcus neoformans [1] = assay: Antifungal activity against Cryptococcus neoformans ATCC 90113 after 24 to 72 hrs by M27-A2 CLSI method; type: functional
Nakaseomyces glabratus [2] = assay: Antifungal activity against Candida glabrata ATCC 90030 after 24 to 72 hrs by M27-A2 CLSI method; type: functional
Candida albicans [3] = assay: Antifungal activity against Candida albicans ATCC 90028 at 20 ug/ml after 24 to 72 hrs by M27-A2 CLSI method; type: functional, organism-based
Pichia kudriavzevii [4] = assay: Antifungal activity against Candida Krusei ATCC 6258 at 20 ug/ml after 24 to 72 hrs by M27-A2 CLSI method; type: functional, organism-based
SK-MEL = assay: Cytotoxicity against human SK-MEL cells at 10 ug/ml by neutral red assay; type: cell-based
KB = assay: Cytotoxicity against human KB cells at 10 ug/ml by neutral red assay; type: cell-based
BT-549 = assay: Cytotoxicity against human BT549 cells at 10 ug/ml by neutral red assay; type: cell-based
SK-OV-3 = assay: Cytotoxicity against human SKOV3 cells at 10 ug/ml by neutral red assay; type: cell-based
Vero = assay: Cytotoxicity against african green monkey Vero cells at 10 ug/ml by neutral red assay; type: cell-based; conditions: chlorocebus sabaeus
LLC-PK1 = assay: Cytotoxicity against pig LLC-PK1 cells at 10 ug/ml by neutral red assay; type: cell-based, Sus scrofa
Aspergillus fumigatus [5] = assay: Antifungal activity against Aspergillus fumigatus ATCC 204305 after 24 to 72 hrs by M27-A2 CLSI method; type: functional, organism-based
Cryptococcus neoformans [6] = assay: Antifungal activity against Cryptococcus neoformans ATCC 90113 at 20 ug/ml after 24 to 72 hrs by M27-A2 CLSI method; type: functional, organism-based
Nakaseomyces glabratus [7] = assay: Antifungal activity against Candida glabrata ATCC 90030 at 20 ug/ml after 24 to 72 hrs by M27-A2 CLSI method; type: functional, organism-based
Aspergillus fumigatus [8] = assay: Antifungal activity against Aspergillus fumigatus ATCC 204305 at 20 ug/ml after 24 to 72 hrs by M27-A2 CLSI method; type: functional, organism-based
Candida albicans [9] = assay: Antifungal activity against Candida albicans ATCC 90028 after 24 to 72 hrs by M27-A2 CLSI method; type: functional
Pichia kudriavzevii [10] = assay: Antifungal activity against Candida Krusei ATCC 6258 after 24 to 72 hrs by M27-A2 CLSI method; type: functional

Row | MIC (Cryptococcus neoformans [1]) [µg/mL] | MIC (Nakaseomyces glabratus [2]) [µg/mL] | MIC (Candida albicans [3]) | MIC (Pichia kudriavzevii [10]) [µg/mL] | SMILES | MFC (Cryptococcus neoformans [1]) [µg/mL] | MFC (Nakaseomyces glabratus [2]) [µg/mL] | Activity (SK-MEL) | Activity (KB) | Activity (BT-549) | Activity (SK-OV-3) | Activity (Vero) | Activity (LLC-PK1) | MFC (Pichia kudriavzevii [10]) [µg/mL] | further results
1 | 10 (≈ 29.8 µM) | 10 (≈ 29.8 µM) | inactive | – | CCCCCCCCCCCCCCCCCCC1=NCCCC1 | 15 (≈ 44.7 µM) | 15 (≈ 44.7 µM) | Non-toxic | Non-toxic | Non-toxic | Non-toxic | Non-toxic | Non-toxic | – | MIC (Pichia kudriavzevii [4]): inactive
2 | – | – | – | – | CCCCCCCCCCCCCC1=NCCCC1 | – | – | – | – | – | – | – | – | – | Activity (Aspergillus fumigatus [5]): inactive; Activity (Cryptococcus neoformans [6]): inactive; Activity (Candida albicans [3]): inactive; Activity (Nakaseomyces glabratus [7]): inactive; Activity (Aspergillus fumigatus [8]): inactive
3 | 11.2 (≈ 38.2 µM) | 10 (≈ 34.1 µM) | inactive | 10 (≈ 34.1 µM) | CCCCCCCCCCCCCCCC1=NCCCC1 | 12.5 (≈ 42.6 µM) | 15 (≈ 51.1 µM) | Non-toxic | Non-toxic | Non-toxic | Non-toxic | Non-toxic | Non-toxic | 15 (≈ 51.1 µM) | –
4 | 2.5 (≈ 7.77 µM) | 5 (≈ 15.5 µM) | inactive | 15 (≈ 46.6 µM) | CCCCCCCCCCCCCCCCCC1=NCCCC1 | 3.8 (≈ 11.8 µM) | 7.5 (≈ 23.3 µM) | Non-toxic | Non-toxic | Non-toxic | Non-toxic | Non-toxic | Non-toxic | 15 (≈ 46.6 µM) | –
5 | – | – | – | – | CCCCCCCCCCCCC1=NCCCC1 | – | – | – | – | – | – | – | – | – | Activity (Aspergillus fumigatus [5]): inactive; Activity (Cryptococcus neoformans [6]): inactive; Activity (Candida albicans [3]): inactive; Activity (Nakaseomyces glabratus [7]): inactive; Activity (Aspergillus fumigatus [8]): inactive
6 | 10 (≈ 35.8 µM) | – | inactive | – | CCCCCCCCCCCCCCC1=NCCCC1 | 10 (≈ 35.8 µM) | – | Non-toxic | Non-toxic | Non-toxic | Non-toxic | Non-toxic | Non-toxic | – | MIC (Nakaseomyces glabratus [7]): inactive; MIC (Pichia kudriavzevii [4]): inactive
7 | 3.8 (≈ 12.4 µM) | 7.5 (≈ 24.4 µM) | – | 7.5 (≈ 24.4 µM) | CCCCCCCCCCCCCCCCC1=NCCCC1 | 3.8 (≈ 12.4 µM) | 7.5 (≈ 24.4 µM) | Non-toxic | Non-toxic | Non-toxic | Non-toxic | Non-toxic | Non-toxic | 7.5 (≈ 24.4 µM) | MFC (Candida albicans [9]): 15 µg/mL (≈ 48.8 µM); MIC (Candida albicans [9]): 15 µg/mL (≈ 48.8 µM)

Row | SMILES | MIC (Cryptococcus neoformans [1]) [µg/mL] | MIC (Nakaseomyces glabratus [2]) [µg/mL] | MIC (Candida albicans [3]) | MIC (Pichia kudriavzevii [10]) [µg/mL] | MFC (Cryptococcus neoformans [1]) [µg/mL] | MFC (Nakaseomyces glabratus [2]) [µg/mL] | Activity (SK-MEL) | Activity (KB) | Activity (BT-549) | Activity (SK-OV-3) | Activity (Vero) | Activity (LLC-PK1) | MFC (Pichia kudriavzevii [10]) [µg/mL] | further results
8 | C[C@@H]1[C@H](O)[C@@H](C)/C=C/C=C/C=C/C=C/C=C/C=C/C=C/[C@H](O[C@@H]2O[C@H](C)[C@@H](O)[C@H](N)[C@@H]2O)C[C@@H]2O[C@](O)(C[C@@H](O)C[C@@H](O)[C@H](O)CC[C@@H](O)C[C@@H](O)CC(=O)O[C@H]1C)C[C@H](O)[C@H]2C(=O)O [AMPHOTERICIN B] | 0.47 (≈ 0.509 µM) | 0.63 (≈ 0.682 µM) | – | 1.25 (≈ 1.35 µM) | 0.47 (≈ 0.509 µM) | 0.94 (≈ 1.02 µM) | – | – | – | – | – | – | 1.25 (≈ 1.35 µM) | MIC (Candida albicans [9]): 0.47 µg/mL (≈ 0.509 µM)
